Measured values as given in patent publication US20240165097A1, “PHARMACEUTICAL COMPOSITION FOR THE TREATMENT OF ALZHEIMER'S DISEASE OR DEMENTIA” (Heptares Therapeutics Limited, priority 2021, published 2024).
Values joined by “and” are separate entries in the source; they are usually repeats but may differ in a detail not shown here. Equal entries are not always repeated. Where two headings read alike, the source gives them in different places.

Columns and labels:
[1] = in humans; cited from earlier work
[2] = 15 mg HTL0018318 + donepezil vs Placebo
[3] = 15 mg HTL0018318 alone vs 15 mg HTL0018318 donepezil
[4] = 15 mg HTL0018318 alone vs Placebo
[5] = 15 mg and 25 mg, in combination with or without donepezil
[6] = 15 mg in combination with donepezil
[7] = 15 mg in combination with donepezil (5 days)
[8] = 15 mg without donepezil (5 days)
[9] = 25 mg HTL0018318 + donepezil vs Placebo
[10] = 25 mg HTL0018318 alone vs 25 mg HTL0018318 donepezil
[11] = 25 mg HTL0018318 alone vs Placebo
[12] = 25 mg in combination with donepezil
[13] = 25 mg in combination with donepezil (5 days)
[14] = 25 mg without donepezil (5 days)
[15] = 25 mg without donepezil vs in combination with donepezil

Protocol for healthy elderly subjects: The study was run in three cohorts to allow within study modification of the dose of HTL0018318 in the event that an unexpected interaction occurred.
HTL0018318 was administered orally as an aqueous solution in 100 ml. Water was used as placebo. To mask the difference in taste between HTL0018318 and placebo, a peppermint strip (Listerine) was administered one minute before and after the administration of the oral solution.
A subset of AEs was created that have a possible relation to increased cholinergic stimulation, being: hyperhidrosis, salivary hypersecretion, hypertension, tachycardia, bradycardia, nausea, diarrhoea, vomiting, constipation, insomnia, dizziness, muscle spasms, hot flush and cold sweat.
Systolic and diastolic blood pressure and pulse rate, all measured in supine and standing position, safety laboratory, electrocardiogram (ECG), and 24-hour Holter ECG were performed.
Saliva production was assessed by measuring the change in weight of three Salivette® dental rolls put into the oral cavity for 3 minutes. Pulmonary function was measured using the Spirostik (Accuramed), a PC-based open spirometry system.
To this end a mixed model analysis of variance was used with treatment, period, time, treatment by period, period by time, treatment by time and treatment by period by time as fixed factors. Subject, subject by period and subject by time were random factors and the pre-HTL0018318 baseline measurement per period was a covariate. In these analysis models, all means are estimated (least square means, LSM). Statistical analysis was conducted with SAS 9.4 for Windows (SAS Institute Inc., Cary, NC, USA). […] Analyses were performed for 15 mg and 25 mg HTL0018318 dose levels separately.

Structure (SMILES): CCOC(=O)N1C2CCC1CC(N1CCC3(CC1)CNC(=O)C3)C2 (stereo not drawn) [HTL0018318, ethyl 3-(3-oxo-2,8-diazaspiro[4.5]dec-8-yl)-8-azabicyclo[3.2.1]octane-8-carboxylate]
- Tmax [1]: 1 to 2 h
- half-life [1]: approximately 16 hours
- FEV1/FVC, contrast estimate (healthy elderly subjects; [2]): 1.052%
- FEV 1 second, contrast estimate (healthy elderly subjects; [2]): 0.043 L
- FVC, contrast estimate (healthy elderly subjects; [2]): 0.03719 L
- LSEQ: Awake following sleep, contrast estimate (healthy elderly subjects; [2]): 3.50
- LSEQ: Behaviour after wake, contrast estimate (healthy elderly subjects; [2]): 1.51
- LSEQ: Getting to sleep, contrast estimate (healthy elderly subjects; [2]): 1.59
- LSEQ: Quality of sleep, contrast estimate (healthy elderly subjects; [2]): 2.42
- PEF, contrast estimate (healthy elderly subjects; [2]): 0.339 L/s
- Saliva, contrast estimate (healthy elderly subjects; [2]): 0.707 g
- VAS Alertness, contrast estimate (healthy elderly subjects; [2]): −0.70 mm
- VAS Calmness, contrast estimate (healthy elderly subjects; [2]): −2.37 mm
- VAS Mood, contrast estimate (healthy elderly subjects; [2]): −0.24 mm
- VAS Nausea, contrast estimate (healthy elderly subjects; [2]): −0.08 log(mm)
- FEV1/FVC, contrast estimate (healthy elderly subjects; [3]): −0.886%
- FEV 1 second, contrast estimate (healthy elderly subjects; [3]): 0.127 L
- FVC, contrast estimate (healthy elderly subjects; [3]): 0.1702 L
- LSEQ: Awake following sleep, contrast estimate (healthy elderly subjects; [3]): −1.93
- LSEQ: Behaviour after wake, contrast estimate (healthy elderly subjects; [3]): −0.85
- LSEQ: Getting to sleep, contrast estimate (healthy elderly subjects; [3]): −0.79
- LSEQ: Quality of sleep, contrast estimate (healthy elderly subjects; [3]): −0.26
- PEF, contrast estimate (healthy elderly subjects; [3]): -0.343 L/s
- Saliva, contrast estimate (healthy elderly subjects; [3]): -0.554 g
- VAS Alertness, contrast estimate (healthy elderly subjects; [3]): −0.46 mm
- VAS Calmness, contrast estimate (healthy elderly subjects; [3]): −0.20 mm
- VAS Mood, contrast estimate (healthy elderly subjects; [3]): −0.03 mm
- VAS Nausea, contrast estimate (healthy elderly subjects; [3]): −0.01 log(mm)
- FEV1/FVC, contrast estimate (healthy elderly subjects; [4]): −0.327%
- FEV 1 second, contrast estimate (healthy elderly subjects; [4]): 0.153 L
- FVC, contrast estimate (healthy elderly subjects; [4]): 0.2035 L
- LSEQ: Awake following sleep, contrast estimate (healthy elderly subjects; [4]): −1.72
- LSEQ: Behaviour after wake, contrast estimate (healthy elderly subjects; [4]): −1.00
- LSEQ: Getting to sleep, contrast estimate (healthy elderly subjects; [4]): 0.82
- LSEQ: Quality of sleep, contrast estimate (healthy elderly subjects; [4]): −5.14
- PEF, contrast estimate (healthy elderly subjects; [4]): 0.282 L/s
- Saliva, contrast estimate (healthy elderly subjects; [4]): 0.498 g
- VAS Alertness, contrast estimate (healthy elderly subjects; [4]): −1.96 mm
- VAS Calmness, contrast estimate (healthy elderly subjects; [4]): −3.17 mm
- VAS Mood, contrast estimate (healthy elderly subjects; [4]): −2.93 mm
- VAS Nausea, contrast estimate (healthy elderly subjects; [4]): −0.06 log(mm)
- number of AEs in gastrointestinal disorders class, viral gastroenteritis AEs excluded (healthy elderly subjects; 15 mg alone): 1 AE
- supine pulse rate compared with placebo (healthy elderly subjects; [5]): no significant effects
- supine systolic blood pressure compared with placebo (healthy elderly subjects; [5]): no significant effects
- cholinergic AEs, percentage of subjects (healthy elderly subjects; [6]): 13%
- nausea reports, viral gastroenteritis AEs excluded (healthy elderly subjects; [6]): one subject
- supine pulse rate (healthy elderly subjects; [6]): 64 bpm
- All AEs, percentage of subjects (healthy elderly subjects; [7]): 50% ( 4/8 subjects)
- Gastrointestinal disorders, percentage of subjects (healthy elderly subjects; [7]): 13% (⅛ subjects)
- Neurological disorders, percentage of subjects (healthy elderly subjects; [7]): 13% (⅛ subjects)
- supine pulse rate, mean difference (healthy elderly subjects; 15 mg in combination with donepezil vs without donepezil): 3.3 bpm
- cholinergic AEs, percentage of subjects (healthy elderly subjects; 15 mg without donepezil): 0%
- supine pulse rate (healthy elderly subjects; 15 mg without donepezil): 67 bpm
- All AEs, percentage of subjects (healthy elderly subjects; [8]): 43% ( 3/7 subjects)
- Gastrointestinal disorders, percentage of subjects (healthy elderly subjects; [8]): 14% ( 1/7 subjects)
- Neurological disorders, percentage of subjects (healthy elderly subjects; [8]): 14% ( 1/7 subjects)
- delta pulse rate (healthy elderly subjects; 15 mg without donepezil vs in combination with donepezil): no significant changes
- number of AEs in gastrointestinal disorders class, viral gastroenteritis AEs excluded (healthy elderly subjects; 15 mg+donepezil): 3 AEs
- FEV1/FVC, contrast estimate (healthy elderly subjects; [9]): −0.399%
- FEV 1 second, contrast estimate (healthy elderly subjects; [9]): 0.085 L
- FVC, contrast estimate (healthy elderly subjects; [9]): 0.1784 L
- LSEQ: Awake following sleep, contrast estimate (healthy elderly subjects; [9]): 0.52
- LSEQ: Behaviour after wake, contrast estimate (healthy elderly subjects; [9]): −0.80
- LSEQ: Getting to sleep, contrast estimate (healthy elderly subjects; [9]): −0.74
- LSEQ: Quality of sleep, contrast estimate (healthy elderly subjects; [9]): −1.37
- PEF, contrast estimate (healthy elderly subjects; [9]): 0.273 L/s
- Saliva, contrast estimate (healthy elderly subjects; [9]): 0.910 g
- VAS Alertness, contrast estimate (healthy elderly subjects; [9]): −1.49 mm
- VAS Calmness, contrast estimate (healthy elderly subjects; [9]): −1.67 mm
- VAS Mood, contrast estimate (healthy elderly subjects; [9]): −0.38 mm
- VAS Nausea, contrast estimate (healthy elderly subjects; [9]): −0.04 log(mm)
- FEV1/FVC, contrast estimate (healthy elderly subjects; [10]): 2.491%
- FEV 1 second, contrast estimate (healthy elderly subjects; [10]): 0.008 L
- FVC, contrast estimate (healthy elderly subjects; [10]): -.11255 L
- LSEQ: Awake following sleep, contrast estimate (healthy elderly subjects; [10]): 0.93
- LSEQ: Behaviour after wake, contrast estimate (healthy elderly subjects; [10]): 1.86
- LSEQ: Getting to sleep, contrast estimate (healthy elderly subjects; [10]): 1.72
- LSEQ: Quality of sleep, contrast estimate (healthy elderly subjects; [10]): 6.49
- PEF, contrast estimate (healthy elderly subjects; [10]): 0.047 L/s
- Saliva, contrast estimate (healthy elderly subjects; [10]): -0.349 g
- VAS Alertness, contrast estimate (healthy elderly subjects; [10]): 0.66 mm
- VAS Calmness, contrast estimate (healthy elderly subjects; [10]): −0.07 mm
- VAS Mood, contrast estimate (healthy elderly subjects; [10]): 0.55 mm
- VAS Nausea, contrast estimate (healthy elderly subjects; [10]): −0.03 log(mm)
- FEV1/FVC, contrast estimate (healthy elderly subjects; [11]): 1.600%
- FEV 1 second, contrast estimate (healthy elderly subjects; [11]): 0.077 L
- FVC, contrast estimate (healthy elderly subjects; [11]): 0.06192 L
- LSEQ: Awake following sleep, contrast estimate (healthy elderly subjects; [11]): −1.85
- LSEQ: Behaviour after wake, contrast estimate (healthy elderly subjects; [11]): −0.60
- LSEQ: Getting to sleep, contrast estimate (healthy elderly subjects; [11]): 1.01
- LSEQ: Quality of sleep, contrast estimate (healthy elderly subjects; [11]): −2.18
- PEF, contrast estimate (healthy elderly subjects; [11]): 0.606 L/s
- Saliva, contrast estimate (healthy elderly subjects; [11]): 0.906 g
- VAS Alertness, contrast estimate (healthy elderly subjects; [11]): −1.63 mm
- VAS Calmness, contrast estimate (healthy elderly subjects; [11]): −2.34 mm
- VAS Mood, contrast estimate (healthy elderly subjects; [11]): −2.49 mm
- VAS Nausea, contrast estimate (healthy elderly subjects; [11]): −0.05 log(mm)
- number of AEs in gastrointestinal disorders class, viral gastroenteritis AEs excluded (healthy elderly subjects; 25 mg alone): 3 AEs
- cholinergic AEs, percentage of subjects (healthy elderly subjects; [12]): 69%
- delta pulse rate (standing from supine) (healthy elderly subjects; [12]): 12 bpm and 10 bpm
- supine pulse rate (healthy elderly subjects; [12]): 64 bpm
- supine systolic blood pressure (healthy elderly subjects; [12]): 120 mm Hg
- All AEs, percentage of subjects (healthy elderly subjects; [13]): 88% ( 14/16 subjects)
- Gastrointestinal disorders, percentage of subjects (healthy elderly subjects; [13]): 25% ( 4/16 subjects)
- Neurological disorders, percentage of subjects (healthy elderly subjects; [13]): 38% ( 6/16 subjects)
- delta pulse rate, mean difference (healthy elderly subjects; 25 mg in combination with donepezil vs placebo in combination with donepezil): −3.4 bpm
- supine pulse rate, mean difference (healthy elderly subjects; 25 mg in combination with donepezil vs without donepezil): 1.5 bpm
- cholinergic AEs, percentage of subjects (healthy elderly subjects; 25 mg without donepezil): 67%
- delta pulse rate (standing from supine) (healthy elderly subjects; 25 mg without donepezil): 10 bpm and 12 bpm
- supine pulse rate (healthy elderly subjects; 25 mg without donepezil): 66 bpm
- supine systolic blood pressure (healthy elderly subjects; 25 mg without donepezil): 118 mm Hg
- All AEs, percentage of subjects (healthy elderly subjects; [14]): 92% ( 11/12 subjects)
- Gastrointestinal disorders, percentage of subjects (healthy elderly subjects; [14]): 17% ( 2/12 subjects)
- Neurological disorders, percentage of subjects (healthy elderly subjects; [14]): 50% ( 6/12 subjects)
- delta pulse rate, mean difference (healthy elderly subjects; [15]): −1.6 bpm
- supine systolic blood pressure, mean difference (healthy elderly subjects; [15]): 1.6 mm Hg
- delta pulse rate, mean difference (healthy elderly subjects; 25 mg without donepezil vs placebo without donepezil): −3.7 bpm
- number of AEs in gastrointestinal disorders class, viral gastroenteritis AEs excluded (healthy elderly subjects; 25 mg+donepezil): 4 AEs
- laboratory tests, ECG assessment and 24-hour Holter ECG (healthy elderly subjects; 15 or 25 mg, with and without donepezil): No clinically significant changes
- standing systolic BP, supine and standing diastolic BP, standing-supine BP, standing pulse rate (healthy elderly subjects; HTL0018318 in combination with donepezil vs HTL0018318 alone): no significant changes
- VAS alertness, calmness, mood, and nausea (healthy elderly subjects; HTL0018318 in combination with donepezil vs without donepezil): no statistically significant effects
- intensity and seriousness of AEs (healthy elderly subjects; all treatments of the study): mild or moderate in intensity and there were no serious adverse events
- tolerability (healthy elderly subjects; multiple doses in combination with donepezil): generally well tolerated
